“Also recorded” adds a separate entry of the source.
Legend:
Assay type in all cases: cell-based, human
[1] = tested on: mutant mTOR-expressing HEK293T cells; experiment: Western blot of S6/S6K phosphorylation in mutant mTOR-expressing HEK293T cells after drug treatment; details: for phosphorylation of S6K in all the mutant mTOR-expressing cells: Y1450D, C1483R, R1709H, Y1977K, S2215F, L2427P, L2427Q
Experimental: HEK293T cells (Thermo Scientific) was cultured in DMEM (Dulbecco's Modified Eagle's Medium) containing 10% FBS at 37° C. and 5% CO2. The cells were transfected with empty flag-tagged vector, flag-tagged mTOR wild type, and flag-tagged mTOR mutants using jetPRIME transfection reagent (Polyplus, France). The cells were serum-starved with DMEM containing 0.1% FBS for 24 hours after transfection and then incubated at 37° C. and 5% CO2 in PBS containing 1 mM MgCl2 and CaCl2 for 1 hour. The cells were lysed with PBS containing 1% Triton X-100 and Halt protease and phosphatase inhibitor cocktail (78440, Thermo Scientific, USA).
Proteins were resolved by SDS-PAGE and transferred to PVDF membranes (Millipore, USA). The membranes were blocked with 3% BSA in TBS containing 0.1% Tween 20 (TBST). They were washed 4 times with TBST. The membranes were each incubated overnight at 4° C. with primary antibodies including a 1/1000 dilution of anti-phospho-S6 ribosomal protein (5364, Cell Signaling Technology, USA), anti-56 ribosomal protein (2217, Cell Signaling Technology, USA), and anti-flag M2 (8164, Cell Signaling Technology, USA) in TBST. After incubation, the membranes were washed 4 times with TBST. They were incubated with a 1/5000 dilution of HRP-linked anti-rabbit or anti-mouse secondary antibodies (7074, Cell Signaling Technology, USA) for 2 hours at room temperature. After washing with TBST, immunodetection was performed using ECL reaction reagents.
Transfection of mTOR mutants into HEK293T cells was carried out in the same manner as in Example 3-2. Then, the cells were serum-starved with DMEM containing 0.1% FBS for 24 hours and incubated at 37° C. and 5% CO2 in PBS containing 1 mM MgCl2 and CaCl2 for 1 hour, followed by treatment with rapamycin, everolimus, or compounds of Chemical Formulas 1 to 4 (Torinl, INK128, AZD8055, GSK2126458); Torin was purchased from TOCRIS, INK128, AZD8055, and GSK2126458 were provided from Selleckchem, and everolimus was purchased from LC laboratory. Subsequently, Western blotting was performed in the same manner as in Example 9.
Cells expressing various mTOR mutations were treated in the same manner as in Example 3-2 with rapamycin, everolimus, or the compounds of Chemical Formulas 1 to 4 and monitored for S6K phosphorylation. The mTOR mutations were R624H, Y1450D, C1483R, R1709H, Y1977K, S2215F, L2427P, and L2427Q. […]
Cells expressing various mTOR mutations were treated in the same manner as in Example 9-1 with rapamycin, everolimus, or the compounds of Chemical Formulas 1 to 4, and monitored for S6K phosphorylation. […]

[2] = tested on: TSC1 mutant-expressing HEK293T cells; experiment: Western blot of S6K phosphorylation in TSC1 mutant-expressing HEK293T cells after drug treatment; details: Example 11; FIGS. 24a and 24b
Experimental: (§1) Briefly, HEK293T cells (Thermo Scientific) were cultured in DMEM (Dulbecco's Modified Eagle's Medium) supplemented with 10% FBS at 37° C. and 5% CO2. The cells were transfected with empty flag-tagged vector, HA-tagged TSC1 wild-type, HA-tagged TSC2 wild-type, HA-tagged AKT3 wild-type, HA-tagged TSC1 mutant, HA-tagged TSC2 mutant and HA-tagged AKT3 mutant, respectively, using jetPRIME transfection reagent (Polyplus, France).
(§2) The cells were serum-starved with 0.1% FBS in DMEM for 24 hours after transfection and then incubated at 37° C. and 5% CO2 in PBS containing 1 mM MgCl2 and CaCl2 for 1 hour. The cells were lysed with PBS containing 1% Triton X-100 and Halt protease and phosphatase inhibitor cocktail (78440, Thermo Scientific, USA). Proteins were resolved by SDS-PAGE and transferred to PVDF membranes (Millipore, USA). The membranes were blocked with 3% BSA in TBS containing 0.1% Tween 20 (TBST). They were washed 4 times with TBST. The membranes were incubated overnight with primary antibodies including a 1/1000 dilution of anti-phospho-S6 ribosomal protein (5364, Cell Signaling Technology, USA), anti-56 ribosomal protein (2217, Cell Signaling Technology, USA), and anti-flag M2 (8164, Cell Signaling Technology, USA) in TBST at 4° C., respectively. After incubation, the membranes were washed 4 times with TBST. […]

[3] = tested on: TSC2 mutant-expressing HEK293T cells; experiment: Western blot of S6K phosphorylation in TSC2 mutant-expressing HEK293T cells after drug treatment; details: Example 11; FIGS. 25a and 25b
Experimental: as §1, §2

Structure (SMILES): CO[C@H]1C[C@@H]2CC[C@@H](C)[C@@](O)(O2)C(=O)C(=O)N2CCCC[C@H]2C(=O)O[C@H]([C@H](C)C[C@@H]2CC[C@@H](OCCO)[C@H](OC)C2)CC(=O)[C@H](C)/C=C(\C)[C@@H](O)[C@@H](OC)C(=O)[C@H](C)C[C@H](C)/C=C/C=C/C=C/1C [everolimus]
- phosphorylation of S6K in mutant mTOR-expressing cells ([1]; Example 3-4, HEK293T, Western blot, FIGS. 9a to 9c): inhibited; also recorded: reduce
- phosphorylation of S6K in all the mutant mTOR-expressing cells ([1]; Example 3-5, mutations R624H, FIGS. 13 and 14): inhibited
- phosphorylation of S6 in mutant mTOR-expressing cells ([1]; Example 10-1, FIG. 22, mTOR L2427P-expressing cells): inhibited
- phosphorylation of S6K in all the mutant mTOR-expressing cells ([1]; Example 10-2, variants R624H, FIGS. 23a and 23b): inhibited
- S6K phosphorylation in TSC1 mutant-expressing cells [2]: inhibit
- S6K phosphorylation in TSC2 mutant-expressing cells [3]: inhibit
